Results from patent publication US20260234150A1, “COMPOUND FOR INHIBITING NLRP3, PREPARATION METHOD, AND USE” (DOVETREE MEDICINES UNUS, INC., priority 2023, published 2026).
Where two headings read alike, the source gives them in different places.

Columns and labels:
[1] = Liver microsome metabolic stability, rat; type: in vitro ADME; conditions: rat liver microsomes, 45 min incubation
Procedure: Purpose: This experiment investigates the metabolic stability of the compound in liver microsomes of different species such as humans, mice and rats, and the residual content of the test compound after incubation with liver microsomes of different species such as humans, mice and rats.
Preparation of 500 μM solution of target compound and positive control: 5 μL of each 10 mM stock solution was taken, added to 95 μL acetonitrile, and mixed for 30 s;
Preparation of 6 mM NADPH solution: 100 mM Stock aliquot liquid was diluted with Mg-Mg —K-Buffer.
2.1.1 Liver microsome solution: 18.75 μL of 20 mg/mL HLM, RLM, MLM, DLM, MOLM (final concentration: 0.5 mg/ml) were taken and placed them in each well of a 96-well plate;
2.1.2 1.5 μL of 500 μM solution of each compound was added respectively;
2.1.3 479.8 μL of phosphate buffer was taken, then added to each compound well, and mixed at 1000 rpm in an oscillating mixer for 10 s.
30 μL of the above samples were taken and aliquoted to a new 96-well plates respectively (including NADPH group, n=2, and no NADPH group at 0 and 45 min, n=1), marked as 0, 5, 15, 30 and 45 min; […]
The slope was calculated based on the LN value of the compound concentration percentage and time as the coordinate axis, and the residual content of the compound after incubation with liver microsomes was calculated based on the slope and formula. […]

[2] = Pharmacokinetic evaluation in mice; type: in vivo; conditions: mouse, plasma, ICR male mice
Procedure: Purpose: ICR male mice were selected as test animals. The LC-MS/MS method was used to quantitatively determine the drug concentration in the plasma of mice at different time points after intravenous injection or oral administration of the test compound to evaluate the pharmacokinetic characteristics of the test drug in mice.
Experimental materials: ICR mice (male, 15-35g, 5-10 weeks old, Shanghai Xipu-Bikai Experimental Animal Co., Ltd.)
The clear solution of the test compound was injected into ICR mice via the tail vein (without fasting, vehicle: 5% DMSO/10% Solutol/85% Saline) and administered to ICR mice by gavage (fasting for 10-14h). For intravenous administration, blood was collected from the submandibular venous plexus at 0.033, 0.083, 0.25, 0.5, 1, 2, 4, 8, and 24 hrs after administration, placed in an EDTA-K2 anticoagulant tube (Jiangsu Kangjian Medical Supplies Co., Ltd.), mixed, and centrifuged at 2-8° C., 6800 g for 6 minutes to obtain plasma; for oral gavage administration, blood was collected from the submandibular venous plexus at 0.083, 0.25, 0.5, 1, 2, 4, 6, 8, and 24 hrs after administration, placed in an EDTA-K2 anticoagulant tube (Jiangsu Kangjian Medical Supplies Co., Ltd.), mixed, and centrifuged at 2-8° C., 6800 g for 6 minutes to obtain plasma. The blood drug concentration was determined by LC-MS/MS, and the pharmacokinetic software Phoenix WinNonlinTM Version 7.0 (Pharsight, USA) was used to calculate the relevant pharmacokinetic parameters by the non-compartmental linear logarithmic trapezoidal method. The compounds of the present disclosure have good pharmacokinetic characteristics in mice, and the test results of representative compounds are shown in Table 8.

Structure (SMILES): CC(=O)N1CCOC[C@H]1CNc1nc2nc(-c3c(C)cc(C(F)(F)F)cc3O)ccc2o1 [Compound 111]
- LMS (r)(% rem, 45 min) [1]: 82.45 % rem
- clearance ([2]; 1 mg/kg, Dosage IV/PO 1/3 mg/kg): 19.2 mL/min/kg
- Vd ([2]; 1 mg/kg, Dosage IV/PO 1/3 mg/kg, read-out: Vdss): 1.93 L/kg
- Cmax ([2]; Dosage IV/PO 1/3 mg/kg): 1550 ng/mL
- bioavailability ([2]; Dosage IV/PO 1/3 mg/kg): 137%
- AUC(0-t) ([2]; IV 1 mg/kg, read-out: AUC0-last IV): 834 ng·h/mL
- half-life ([2]; IV 1 mg/kg, read-out: T1/2 (IV, h) (converted)): 2.12 h
- AUC(0-t) ([2]; PO 3 mg/kg, read-out: AUC0-last PO): 3440 ng·h/mL
